In brackets after ≈: the same amount, converted by molar mass.
Assays:
Format in all cases: functional
Klebsiella pneumoniae = assay: Antibacterial activity against Klebsiella pneumoniae after 24 hrs by micro broth dilution method
Staphylococcus aureus [1] = assay: Antibacterial activity against Staphylococcus aureus ATCC 25923 after 24 hrs by micro broth dilution method; details: ATCC 25923, 24 h
Acinetobacter baumannii = assay: Antibacterial activity against Acinetobacter baumannii after 24 hrs by micro broth dilution method
Candida albicans [2] = assay: Antifungal activity against Candida albicans ATCC 90023 after 24 hrs by two-fold broth microdilution assay; details: ATCC 90023, 24 h
Candida parapsilosis [3] = assay: Antifungal activity against Candida parapsilosis ATCC 22019 after 24 hrs by two-fold broth microdilution assay; details: Lodderomyces parapsilosis, ATCC 22019, 24 h
Pseudomonas aeruginosa [4] = assay: Antibacterial activity against Pseudomonas aeruginosa ATCC 27853 after 24 hrs by micro broth dilution method; details: ATCC 27853, 24 h
Candida albicans [5] = assay: Antifungal activity against Candida albicans after 24 hrs by two-fold broth microdilution assay
Aspergillus fumigatus = assay: Antifungal activity against Aspergillus fumigatus after 24 hrs by two-fold broth microdilution assay
Staphylococcus aureus [6] = assay: Antibacterial activity against methicillin-resistant Staphylococcus aureus after 24 hrs by micro broth dilution method
Escherichia coli [7] = assay: Antibacterial activity against Escherichia coli ATCC 25922 after 24 hrs by micro broth dilution method; details: ATCC 25922, 24 h
Staphylococcus aureus [8] = assay: Antibacterial activity against Staphylococcus aureus after 24 hrs by micro broth dilution method
Staphylococcus aureus [9] = assay: Antibacterial activity against Staphylococcus aureus ATCC 29213 after 24 hrs by micro broth dilution method; details: ATCC 29213, 24 h
Escherichia coli [10] = assay: Antibacterial activity against Escherichia coli after 24 hrs by micro broth dilution method
Candida tropicalis [11] = assay: Antifungal activity against Candida tropicalis after 24 hrs by two-fold broth microdilution assay
Pseudomonas aeruginosa [12] = assay: Antibacterial activity against Pseudomonas aeruginosa after 24 hrs by micro broth dilution method
Enterococcus faecalis = assay: Antibacterial activity against Enterococcus faecalis after 24 hrs by micro broth dilution method
Candida albicans [13] = assay: Fungicidal activity against Candida albicans incubated for 24 hrs followed by plating onto tryptic soy agar medium and measured after 24 hrs by broth microdilution method
Candida parapsilosis [14] = assay: Ratio of MFC to MIC for Candida parapsilosis ATCC 22019
Candida parapsilosis [15] = assay: Fungicidal activity against Candida parapsilosis ATCC 22019 incubated for 24 hrs followed by plating onto tryptic soy agar medium and measured after 24 hrs by broth microdilution method; details: Lodderomyces parapsilosis, ATCC 22019, 24 h
Candida tropicalis [16] = assay: Ratio of MFC to MIC for Candida tropicalis
Candida albicans [17] = assay: Ratio of MFC to MIC for Candida albicans
Candida tropicalis [18] = assay: Fungicidal activity against Candida tropicalis incubated for 24 hrs followed by plating onto tryptic soy agar medium and measured after 24 hrs by broth microdilution method

SMILES | MIC (Klebsiella pneumoniae) | MIC (Staphylococcus aureus [1]) | MIC (Acinetobacter baumannii) | MIC (Candida albicans [2]) | MIC (Candida parapsilosis [3]) | MIC (Pseudomonas aeruginosa [4]) | MIC (Candida albicans [5]) | MIC (Aspergillus fumigatus) | MIC (Staphylococcus aureus [6]) | MIC (Escherichia coli [7]) | MIC (Staphylococcus aureus [8]) | MIC (Staphylococcus aureus [9]) | MIC (Escherichia coli [10]) | MIC (Candida tropicalis [11]) | MIC (Pseudomonas aeruginosa [12]) | MIC (Enterococcus faecalis) | further results
OC(Cn1cncn1)(Cn1ccc2ccccc21)c1ccc(F)cc1F (configuration not stated) | 128 µg/mL (≈ 361 µM) | 32 µg/mL (≈ 90.3 µM) | 128 µg/mL (≈ 361 µM) | 128 µg/mL (≈ 361 µM) | 64 µg/mL (≈ 181 µM) | 128 µg/mL (≈ 361 µM) | 32 µg/mL (≈ 90.3 µM) | 32 µg/mL (≈ 90.3 µM) | 32 µg/mL (≈ 90.3 µM) | 32 µg/mL (≈ 90.3 µM) | 128 µg/mL (≈ 361 µM) | 64 µg/mL (≈ 181 µM) | 64 µg/mL (≈ 181 µM) | 64 µg/mL (≈ 181 µM) | 64 µg/mL (≈ 181 µM) | 64 µg/mL (≈ 181 µM) | –
CCn1cc(C(=O)O)c(=O)c2cc(F)c(N3CCNCC3)cc21 [NORFLOXACIN] | 4 µg/mL (≈ 12.5 µM) | 1 µg/mL (≈ 3.13 µM) | 8 µg/mL (≈ 25.1 µM) | – | – | 0.5 µg/mL (≈ 1.57 µM) | – | – | 8 µg/mL (≈ 25.1 µM) | 8 µg/mL (≈ 25.1 µM) | 2 µg/mL (≈ 6.26 µM) | 8 µg/mL (≈ 25.1 µM) | 16 µg/mL (≈ 50.1 µM) | – | 2 µg/mL (≈ 6.26 µM) | 4 µg/mL (≈ 12.5 µM) | –
OC(Cn1cncn1)(Cn1c2ccc(Br)cc2c2cc(Br)ccc21)c1ccc(Cl)cc1 (configuration not stated) | 256 µg/mL (≈ 457 µM) | 32 µg/mL (≈ 57.1 µM) | 256 µg/mL (≈ 457 µM) | 64 µg/mL (≈ 114 µM) | 32 µg/mL (≈ 57.1 µM) | 16 µg/mL (≈ 28.5 µM) | 8 µg/mL (≈ 14.3 µM) | 64 µg/mL (≈ 114 µM) | 16 µg/mL (≈ 28.5 µM) | 16 µg/mL (≈ 28.5 µM) | 32 µg/mL (≈ 57.1 µM) | 16 µg/mL (≈ 28.5 µM) | 128 µg/mL (≈ 228 µM) | 32 µg/mL (≈ 57.1 µM) | 256 µg/mL (≈ 457 µM) | 16 µg/mL (≈ 28.5 µM) | –
OC(Cn1cncn1)(Cn1c2ccccc2c2cc(I)ccc21)c1ccc(F)cc1F (configuration not stated) | 256 µg/mL (≈ 483 µM) | 16 µg/mL (≈ 30.2 µM) | 128 µg/mL (≈ 241 µM) | 64 µg/mL (≈ 121 µM) | 32 µg/mL (≈ 60.3 µM) | 256 µg/mL (≈ 483 µM) | 16 µg/mL (≈ 30.2 µM) | 64 µg/mL (≈ 121 µM) | 32 µg/mL (≈ 60.3 µM) | 32 µg/mL (≈ 60.3 µM) | 128 µg/mL (≈ 241 µM) | 16 µg/mL (≈ 30.2 µM) | 256 µg/mL (≈ 483 µM) | 16 µg/mL (≈ 30.2 µM) | 128 µg/mL (≈ 241 µM) | 16 µg/mL (≈ 30.2 µM) | –
OC(Cn1cncn1)(Cn1c2ccc(Br)cc2c2cc(Br)ccc21)c1ccc(F)cc1 (configuration not stated) | 256 µg/mL (≈ 470 µM) | 32 µg/mL (≈ 58.8 µM) | 256 µg/mL (≈ 470 µM) | 64 µg/mL (≈ 118 µM) | 8 µg/mL (≈ 14.7 µM) | 64 µg/mL (≈ 118 µM) | 8 µg/mL (≈ 14.7 µM) | 128 µg/mL (≈ 235 µM) | 64 µg/mL (≈ 118 µM) | 16 µg/mL (≈ 29.4 µM) | 64 µg/mL (≈ 118 µM) | 16 µg/mL (≈ 29.4 µM) | 64 µg/mL (≈ 118 µM) | 16 µg/mL (≈ 29.4 µM) | 128 µg/mL (≈ 235 µM) | 64 µg/mL (≈ 118 µM) | MFC (Candida albicans [13]): 32 µg/mL (≈ 58.8 µM); Ratio (Candida parapsilosis [14]): 2; MFC (Candida parapsilosis [15]): 16 µg/mL (≈ 29.4 µM); Ratio (Candida tropicalis [16]): 2; Ratio (Candida albicans [17]): 4; MFC (Candida tropicalis [18]): 32 µg/mL (≈ 58.8 µM)
Cc1ccc(C(O)(Cn2cncn2)Cn2c3ccc(Br)cc3c3cc(Br)ccc32)cc1 (configuration not stated) | 256 µg/mL (≈ 474 µM) | 128 µg/mL (≈ 237 µM) | 256 µg/mL (≈ 474 µM) | 128 µg/mL (≈ 237 µM) | 32 µg/mL (≈ 59.2 µM) | 64 µg/mL (≈ 118 µM) | 64 µg/mL (≈ 118 µM) | 64 µg/mL (≈ 118 µM) | 128 µg/mL (≈ 237 µM) | 16 µg/mL (≈ 29.6 µM) | 256 µg/mL (≈ 474 µM) | 256 µg/mL (≈ 474 µM) | 256 µg/mL (≈ 474 µM) | 32 µg/mL (≈ 59.2 µM) | 256 µg/mL (≈ 474 µM) | 64 µg/mL (≈ 118 µM) | –

From ChEMBL document CHEMBL4270534, “Novel carbazole-triazole conjugates as DNA-targeting membrane active potentiators against clinical isolated fungi” (Eur J Med Chem, 2018)
